System: synaptosomes
Assay: NAD+ uptake by isolated synaptosomes (synaptosomal NAD(H) levels)
Design: species or system mouse

Compound	increase of synaptosomal NAD(H) levels compared to control samples (synaptosomes incubated with 10 mM NAD+)	uptake of NAD+ by synaptosomes (purinergic receptor P2X(7)-gated channels inhibitor)
NC(=O)c1ccc[n+]([C@@H]2O[C@H](COP(=O)([O-])OP(=O)(O)OC[C@H]3O[C@@H](n4cnc5c(N)ncnc54)[C@H](O)[C@@H]3O)[C@@H](O)[C@H]2O)c1 [NAD^+, nicotinamide adenine dinucleotide]	2 fold	–
brilliant blue	–	blocked

Reference: patent publication US20120328526A1, “Modulation of Nad+ Activity in Neuropathophysiological Conditions and Uses Thereof” (University of Maryland, Baltimore, priority 2011, published 2012)
